Assay results reported in patent US7700775B2, “Compounds and compositions for delivering active agents” (Emisphere Technologies, Inc., priority 2001, dated 2010).
Counter-ions that a name gives are not always drawn.

assay: not given; details: not given

Compared with `CCN(CC)CCNC(=O)c1cc(Cl)ccc1O` (as salt: citrate) [Compound 1, N-[2-(diethylamino)ethyl]-5-chloro-2-hydroxybenzamide Mono-citrate], `CCN(CC)CCNC(=O)c1ccccc1O` (as salt: citrate) [Compound 3, N-[2-(diethylamino)ethyl]-2-hydroxybenzamide Mono-citrate] is higher in melting point: 107 to 109 °C for the first, 111 to 113 °C for the second.

First: CN(C)c1ccc(CNC(=O)c2ccccc2O)cc1 [Compound 4, N-(4-dimethylaminobenzyl) salicylamide]
Second: COc1ccc(C(=O)NCCCCCCCCN)c(O)c1 [Compound 18, N-(2-hydroxy-4-methoxybenzoyl)-1,8-diaminooctane]
The melting point of the first is lower: 129 to 132 °C for the first, 151 to 153 °C for the second.

For `NC(=O)c1ccc(CCCCCCN2CCOCC2)cc1O` [Compound 5, 4-(6-morpholin-4-ylhexyl)-salicylamide], the melting point was 70 to 73 °C.

assay: Oral BIBN4096BS Delivery (plasma BIBN4096BS by LC/MS/MS after oral gavage with delivery agent compound); details: previous studies; baseline (no delivery agent stated)
Protocol: Oral gavage (PO) dosing solutions of delivery agent compound and the Calcitonin gene-related peptide antagonist, 1-Piperidinecarboxamide. […] (BIBN4096BS) in water were prepared. […] The final dosing solutions were prepared by mixing the delivery agent compound with a BIBN4096BS stock solution and diluting to the desired volume (usually 1.0 mL). If necessary, the pH of the mixture was adjusted by the addition of aliquots of aqueous hydrochloric acid solution of an appropriate normality until the final pH of the dosing solution was below 7.0. The final compound amounts per dose were 25 mg/kg of BIBN4096BS, 200 mg/kg of delivery agent compound, in a total volume of 1 mL/kg.
The typical dosing and sampling protocols were as follows. Male Sprague-Dawley rats weighing between 200-250 g were fasted for 24 hours and administered ketamine (44 mg/kg) and chlorpromazine (1.5 mg/kg) 15 minutes prior to dosing. A dosing group of five rats was administered one of the dosing solutions. For oral gavage (PO) dosing, an 11 cm Rusch 8 French catheter was adapted to a 1 mL syringe with a pipette tip. The syringe was filled with dosing solution by drawing the solution through the catheter, which was then wiped dry. […] Plasma BIBN4096BS concentrations were quantified by using a liquid chromatography/mass spectrometry/mass spectrometry assay method using UV detection. […]

With `NCCCCC(NC(=O)C(Cc1cc(Br)c(O)c(Br)c1)NC(=O)N1CCC(N2Cc3ccccc3NC2=O)CC1)C(=O)N1CCN(c2ccncc2)CC1` (stereo not drawn) [BIBN4096BS, 1-Piperidinecarboxamide. N-[2-[[5-amino-1-[[4-(4-pyridinyl)-1-piperazinyl)carbonyl]pentyl]amino]-1-[(3,5-dibromo-4-hydroxyphenyl)methyl]-2-oxoethyl]-4(1,4-dihydro-2-oxo-3(2H0-quinazolinyl)-.[R-(R*,S*)]] the “baseline values of plasma BIBN4096BS” value was “about 10 ng/mL”.
